The values below come from ChEMBL document CHEMBL1121768, “Synthesis and platelet aggregation inhibitory activity of 4,5-bis(aryl)-2-substituted-thiazoles” (J Med Chem, 1981).

Usually inhibition in vivo stands for the relative decrease from the control value, in per cent. Usually IC50 stands for the midpoint of a concentration-inhibition curve. Higher therefore signals a need for much substance.

Molecules are shown by their SMILES. Converted amounts (≈) assume the structure as drawn.

Holding throughout (format): functional
For test [1], the system named is Cavia porcellus. Description: Percent inhibition of platelet aggregation following oral administration to guinea pigs at a dose of 1 mg/kg.
In test [2] the test system is Cavia porcellus. Description: Percent inhibition of platelet aggregation following oral administration to guinea pigs at a dose of 5 mg/kg.
For a further test, the species on record is Homo sapiens. Put plainly: In vitro inhibition of collagen-induced platelet aggregation in human platelet rich plasma.
The test system of test [3] is Cavia porcellus. Description: Percent inhibition of platelet aggregation following oral administration to guinea pigs at a dose of 10 mg/kg.
The species entered for test [4] is Cavia porcellus. Put plainly: In vitro inhibition of collagen-induced platelet aggregation in guinea pig platelet rich plasma.
In test [5] the test system is Cavia porcellus. Description: Percent inhibition of platelet aggregation at 16 hours following oral administration to guinea pigs at 5 mg/kg.
Test [6] concerns Cavia porcellus. Put plainly: Percent inhibition of platelet aggregation at 2 hours following oral administration to guinea pigs at 5 mg/kg.
Test [7] relates to Cavia porcellus. Put plainly: Percent inhibition of platelet aggregation at 24 hours following oral administration to guinea pigs at 5 mg/kg.
Test [8] deals with Cavia porcellus. Put plainly: Percent inhibition of platelet aggregation at 4 hours following oral administration to guinea pigs at 5 mg/kg.
For test [9], the system named is Cavia porcellus. Put plainly: Percent inhibition of platelet aggregation at 8 hours following oral administration to guinea pigs at 5 mg/kg.
The subject of test [10] is Cavia porcellus. Description: Percent inhibition of platelet aggregation following oral administration to guinea pigs at a dose of 0.1 mg/kg.
The subject of test [11] is Cavia porcellus. Description: Percent inhibition of platelet aggregation following oral administration to guinea pigs at a dose of 0.5 mg/kg.
The test system of test [12] is Cavia porcellus. Put plainly: Percent inhibition of platelet aggregation at 0 hours following oral administration to guinea pigs at 5 mg/kg.
The subject of test [13] is Cavia porcellus. Put plainly: Percent inhibition of platelet aggregation at 12 hours following oral administration to guinea pigs at 5 mg/kg.

In the case of `COc1ccc(-c2nc(CC(N)=O)sc2-c2ccc(OC)cc2)cc1`, in the test with Cavia porcellus [1], at 1 mg/kg the inhibition in vivo was 39%. Further, 5 mg/kg produced 96% inhibition in vivo in the test on Cavia porcellus [2]. Further, the IC50 in the test filed under Homo sapiens came out at 0.0032 µg/mL (≈ 0.00903 µM). For the same compound, testing at 10 mg/kg with Cavia porcellus [3] gave an inhibition in vivo of 100%.
With `COc1ccc(-c2nc(C(C)(C)CO)sc2-c2ccc(OC)cc2)cc1`, the IC50 amounted to 0.01 µg/mL (≈ 0.0271 µM) in the test filed under Cavia porcellus [4] and 0.0032 µg/mL (≈ 0.00866 µM) in the test listed under Homo sapiens.
`COc1ccc(-c2nc(CC(=O)[O-])sc2-c2ccc(OC)cc2)cc1.[Li+]`: the 50% inhibitory concentration (IC50) in the test filed under Homo sapiens came to 0.032 µg/mL.
As for `COc1ccc(-c2nc(CCO)sc2-c2ccc(OC)cc2)cc1`, the IC50 in the test filed under Cavia porcellus [4] turned out to be 0.0032 µg/mL (≈ 0.00937 µM); in the test filed under Homo sapiens, 0.00032 µg/mL (≈ 0.000937 µM). In the test with Cavia porcellus [1], this compound had an inhibition in vivo at 1 mg/kg of 9%. In addition, the inhibition in vivo at 5 mg/kg with Cavia porcellus [2] stood at 79%. For the same compound, testing at 10 mg/kg with Cavia porcellus [3] gave an inhibition in vivo of 100%.
In the case of `FC(F)(F)c1nc(-c2ccc(Cl)cc2)c(-c2ccc(Cl)cc2)s1`, 0.032 µg/mL (≈ 0.0855 µM) corresponded to half-maximal inhibition in the test filed under Homo sapiens (IC50).
Same read-out and setting: under `FC(F)(F)c1nc(-c2ccccc2)c(-c2ccccc2)s1` stands 0.32 µg/mL (≈ 1.05 µM).
Regarding `COC(=O)Cc1nc(-c2ccc(OC)cc2)c(-c2ccc(OC)cc2)s1`, in the test filed under Homo sapiens, it took 0.0001 µg/mL (≈ 0.000271 µM) to reach half-maximal inhibition (IC50).
Take `COc1ccc(-c2nc(C)sc2-c2ccc(OC)cc2)cc1`: in the test listed under Homo sapiens, the IC50 was 0.00032 µg/mL (≈ 0.00103 µM).
Compound `COc1ccc(-c2ncsc2-c2ccc(OC)cc2)cc1` yielded an IC50 in the test listed under Homo sapiens of 0.032 µg/mL (≈ 0.108 µM).
Take `COc1ccc(-c2nc(C(C)C)sc2-c2ccc(OC)cc2)cc1`: the IC50 in the test listed under Cavia porcellus [4] was 0.01 µg/mL (≈ 0.0295 µM); in the test listed under Homo sapiens, 0.0032 µg/mL (≈ 0.00943 µM). Further, the inhibition in vivo at 1 mg/kg in the test with Cavia porcellus [1] was found to be 6%. Moreover, at 5 mg/kg the inhibition in vivo with Cavia porcellus [2] was 85%. In the test with Cavia porcellus [3], this compound registered an inhibition in vivo at 10 mg/kg of 100%.
Consider `COC(=O)C(C)(C)c1nc(-c2ccc(OC)cc2)c(-c2ccc(OC)cc2)s1`, for which the IC50 in the test filed under Cavia porcellus [4] came out at 0.01 µg/mL (≈ 0.0252 µM); in the test listed under Homo sapiens, 0.0032 µg/mL (≈ 0.00805 µM). In addition, the inhibition in vivo at 1 mg/kg in the test with Cavia porcellus [1] was found to be 27%. Further, at 5 mg/kg the inhibition in vivo in the test with Cavia porcellus [2] was 100%. Moreover, the inhibition in vivo at 10 mg/kg in the test on Cavia porcellus [3] came to 100%.
For `CC(=O)Oc1ccccc1C(=O)O` [ASPIRIN], the IC50 in the test listed under Homo sapiens was 10 µg/mL (≈ 55.5 µM).
Turning to `CC(C(=O)O)c1ccc(-c2ccccc2)c(F)c1` (centres undefined) [FLURBIPROFEN], the IC50 in the test filed under Cavia porcellus [4] and in the test listed under Homo sapiens was 0.32 µg/mL (≈ 1.31 µM) each time.
In the case of `COc1ccc(-c2nc(C(F)(F)F)sc2-c2ccc(OC)cc2)cc1` [ITAZIGREL], the figures for the IC50 in the test filed under Cavia porcellus [4] and in the test listed under Homo sapiens were 0.01 µg/mL (≈ 0.0274 µM) and 0.001 µg/mL (≈ 0.00274 µM), respectively. Further, the inhibition in vivo at 5 mg/kg with Cavia porcellus [5] is 16.2%; in the test on Cavia porcellus [6], 97%; with Cavia porcellus [7] it was 10.3%; in the test on Cavia porcellus [8], 68.5%; with Cavia porcellus [9], 93.2%; with Cavia porcellus [2] it was 100%. Also, the inhibition in vivo at 5 mg/kg stood at 0% in the test with Cavia porcellus [12] and 48.7% in the test on Cavia porcellus [13]. In the test on Cavia porcellus [10], this compound registered an inhibition in vivo at 0.1 mg/kg of 6%. In the test with Cavia porcellus [11], the inhibition in vivo at 0.5 mg/kg came to 68.5%. This compound also returned an inhibition in vivo at 1 mg/kg in the test on Cavia porcellus [1] of 83%. Also, at 10 mg/kg the inhibition in vivo in the test with Cavia porcellus [3] was 100%.
